Target: T1, PPAR-γ (Homo sapiens, UniProt P37231)
T1 sequence (P37231 1-505): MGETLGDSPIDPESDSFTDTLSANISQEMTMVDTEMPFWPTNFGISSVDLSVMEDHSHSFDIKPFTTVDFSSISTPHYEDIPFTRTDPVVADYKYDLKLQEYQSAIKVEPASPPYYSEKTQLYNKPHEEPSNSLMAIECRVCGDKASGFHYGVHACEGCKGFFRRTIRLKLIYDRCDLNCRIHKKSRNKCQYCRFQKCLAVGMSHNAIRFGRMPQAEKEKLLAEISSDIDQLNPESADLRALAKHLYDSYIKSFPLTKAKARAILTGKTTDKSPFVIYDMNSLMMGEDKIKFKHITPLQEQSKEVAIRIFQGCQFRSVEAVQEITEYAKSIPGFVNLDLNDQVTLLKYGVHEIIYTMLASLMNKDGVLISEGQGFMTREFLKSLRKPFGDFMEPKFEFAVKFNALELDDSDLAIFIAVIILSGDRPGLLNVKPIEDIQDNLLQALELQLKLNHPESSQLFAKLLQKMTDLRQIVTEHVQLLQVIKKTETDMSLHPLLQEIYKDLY
Test: LanthaScreen TR-FRET competitive binding assay

Row | IC50 [µM] | Structure (SMILES)
1 | 2.25 | COc1cc(CC/C(C)=N\O)ccc1OCC(=O)Nc1ccc(F)cc1 [G1, (Z)-N-(4-Fluorophenyl)-2-(4-(3-(hydroxyimino)butyl)-2-methoxyphenoxy)acetamide]
2 | 4.51 | COc1cc(CC/C(C)=N\O)ccc1OCC(=O)Nc1nccs1 [G2, (Z)-2-(4-(3-(Hydroxyimino)butyl)-2-methoxyphenoxy)-N-(thiazol-2-yl)acetamide]
